Measured values: US20250026725A1, “HYDRATE CRYSTAL OF 5-CHLORO-4-(3-CHLORO-4- METHYLPHENYL)-1H-IMIDAZOLE-2-CARBONITRILE” (ISHIHARA SANGYO KAISHA, LTD., priority 2021, published 2025)
Converted amounts (≈) assume the structure as drawn. Where two headings read alike, the source gives them in different places.

What was measured:
[1] = system: Malassezia furfur (IFM 55951); assay: Antifungal activity test, minimum fungicidal concentration (MFC100); type: cell-based; conditions: 1 minute contact, culture 32° C. for 72 hours, read-out: Minimal fungicidal concentration (MFC100)
Experimental: (§1) Fungi of Malassezia (Malassezia furfur, Malassezia sympodialis, and Malassezia globosa) that had been cultured on a CHROMagar (trademark) Malassezia/Candida raw medium (peptone, specialized enzyme-substrate mixture, chloramphenicol, olive oil, agar, manufactured by KANTO CHEMICAL CO., INC.) for 5 to 7 days was suspended in physiological saline to prepare so as to have an absorbance of 0.025 at 600 nm. The compound under test dissolved in DMSO was added thereto so as to have final concentrations of 200, 100, 50, and 25 ppm. 1 minute later, 10 μL of suspension and 10 mL of physiological saline were added to a syringe and stirred, and then the mixture was filtered by connecting to a 37 mm quality monitor (manufactured by Pall Corporation) and washed twice with 10 ml of physiological saline. The membrane filters were removed from the quality monitor, and placed and cultured on the CHROMagar (trademark) Malassezia/Candida raw medium at 32° C. for 72 hours, and the presence or absence of the development of colonies was examined to determine a minimum fungicidal concentration (MFC100). Minimum fungicidal concentrations (MFC100) for Malassezia furfur (IFM 55951), Malassezia sympodialis (IFM 48588), and Malassezia globosa (IFM 51946) were determined in the same method as in Test Example 10 except that the hydrate crystal (Production Example 2) was used as the compound under test.

[2] = system: Malassezia globosa (IFM 51946); assay: as above; type: cell-based; conditions: 1 minute contact, culture 32° C. for 72 hours, read-out: Minimal fungicidal concentration (MFC100)
Experimental: as §1

[3] = system: Malassezia sympodialis (IFM 48588); assay: as above; type: cell-based; conditions: 1 minute contact, culture 32° C. for 72 hours, read-out: Minimal fungicidal concentration (MFC100)
Experimental: as §1

[4] = system: Trichophyton rubrum (ATCCMYA4607); assay: Antifungal activity test, minimum fungicidal concentration (MFC100) on spores by treatment time; type: cell-based; conditions: read-out: Minimal fungicidal concentration (MFC100)
Experimental: Trichophyton rubrum was cultured on a Sabouraud medium at 32° C. for 168 hours to form spores. Mycelia were peeled from a medium surface and collected into a tube, physiological saline solution (OTSUKA NORMAL SALINE; containing the equivalent of 9 g of sodium chloride in 1000 mL) was added thereto, and the entire mixture was mixed and dispersed with a disposable loop (Type 1 (1 μL)) to collect a spore suspension containing mycelia. The spore suspension containing mycelia was filtered through a cell strainer (+40 μm). Spores were collected from a filtrate by centrifugation (3500 rpm, 5 minutes), and washed twice with physiological saline to prepare a spore suspension (1×10^7 cells/mL). 10 μL of the spore suspension was inoculated into 90 μL of physiological saline solution to which the test compound dissolved in DMSO was added so as to have a predetermined concentration. Every time a predetermined time lapsed, 10 μL of a test solution containing spores was taken out. Spores were collected from the test solution thus taken out by centrifugation (3500 rpm, 5 minutes), and washed twice with physiological saline to prepare 10 μL of spore suspension. 10 μL of spore suspension was spotted on the Sabouraud medium and cultured at 32° C. for 72 hours, and then the presence or absence of the development of colonies was examined to determine a minimum fungicidal concentration (MFC100).
A minimum inhibitory concentration (MIC100) for Trichophyton rubrum (ATCCMYA4607) was determined in the same method as in Test Example 13 except that the hydrate crystal (Production Example 2) was used as the compound under test.

[5] = Karl Fischer moisture content measurement (volumetric titration method); type: physicochemical; conditions: atmosphere of 25° C., as obtained
Experimental: The moisture content rates of the hydrate crystals obtained in Production Examples 1 and 2, and the anhydrous crystals used as a raw material in Production Example 1 were measured with a Karl Fischer moisture meter (CA-310, manufactured by Nittoseiko Analytech Co., Ltd.). The test was conducted in conformance with the description in The Japanese Pharmacopoeia, 18th Edition, “2.48 Water Determination (Karl Fischer Method)”, Volumetric titration. The measurement was performed in an atmosphere of 25° C., with the conditions set to a forced delay time of 2 minutes after sample administration, a minimum amount to be titrated of 2 μL, and an end point voltage of 140 mV. More specifically, it was as follows. First, into a measuring flask, methanol for moisture measurement (Aquamicron Dehydrated Solvent GEX, manufactured by Mitsubishi Chemical Corporation) was loaded, and 30 mg of water was added thereto to titrate the mixture with a Karl Fischer reagent (Aquamicron SS-Z, manufactured by Mitsubishi Chemical Corporation). After titration, a titer (mg/mL) of the reagent was determined from the amount titrated. Next, about 0.1 g of a measurement sample was precisely weighed and added into the measuring flask to titrate the mixture with a Karl Fischer reagent. The moisture content (w/w %) in the sample was calculated from the amount titrated and the previously determined titer.

[6] = Test of triboelectrification properties; type: physicochemical; conditions: 25° C. and 50% RH
Experimental: First, the sample was loaded into a levelled stainless steel petri dish having φ50 mm×a height of 15 mm, and then it was statically eliminated with a static eliminator (STABLO AP, manufactured by SHIMADZU CORPORATION). The surface potential of the sample was measured with a surface electrometer (SV-77A, manufactured by NIPPON STATIC CO., LTD.) that had previously been zero-point adjusted, to confirm that it was statically eliminated (within −1 to +1 kV). Next, the sample surface of the petri dish loaded with the sample was scraped back and forth 20 times with a stainless steel metal plate for 10 seconds to charge the sample surface. After that, the petri dish loaded with the charged sample was placed on a metal plate (30 cm×30 cm) connected with a ground wire. The surface potential of the sample was measured over time for 20 minutes with the above surface electrometer. The triboelectrification properties were evaluated from the initial surface potential. In addition, the retention rate was calculated from the surface potential after 20 minutes and the initial surface potential to evaluate charge attenuation properties. Note that the test was conducted in an electrostatic measurement chamber (Tabai ESPEC CORP.) set to 25° C. and 50% RH, and the surface potential measurement was conducted at a distance of 1 cm from the sample surface.

Karl Fischer moisture content [5]: 0.1 wt %
Electrification voltage ([6]; 0 minutes after charging, listed as Anhydrate crystal): −5.42 kv
Electrification voltage ([6]; 20 minutes after charging, listed as Anhydrate crystal): −5.39 kv
Decrease of potential retention rate ([6]; at 20 minutes later): almost no change
Retention rate ([6]; surface potential after 20 minutes vs initial, listed as Anhydrate crystal): 99.4%
Structure (SMILES): Cc1ccc(-c2nc(C#N)[nH]c2Cl)cc1Cl [Anhydrous crystal, 5-chloro-4-(3-chloro-4-methylphenyl)-1H-imidazole-2-carbonitrile]
MFC [1]: 50 µg/mL (≈ 198 µM)
MFC [2]: 50 µg/mL (≈ 198 µM)
MFC [3]: 50 µg/mL (≈ 198 µM)
MFC ([4]; treatment time 1 hour): 50 µg/mL (≈ 198 µM)
MFC ([4]; treatment time 48 hours): 10 µg/mL (≈ 39.7 µM)
MFC ([4]; treatment time 72 hours): 5 µg/mL (≈ 19.8 µM)
